Measurements from ChEMBL document CHEMBL5360568, “Synthesis and anti-Alzheimer potential of novel α-amino phosphonate derivatives and probing their molecular interaction mechanism with acetylcholinesterase” (Eur J Med Chem, 2023).

Experiments:
[1] = Antioxidant activity assessed as ABTS radical scavenging activity incubated for 30 mins by spectrophotometric analysis; format: functional
Cholinesterase = Cholinesterase (Equus caballus, UniProt P81908); assay: Inhibition of equine serum BuChE using butyrylthiocholine iodide as substrate preincubated for 5 mins followed by substrate addition by DTNB based Ellman's method
Cholinesterase, sequence (P81908 whole entry): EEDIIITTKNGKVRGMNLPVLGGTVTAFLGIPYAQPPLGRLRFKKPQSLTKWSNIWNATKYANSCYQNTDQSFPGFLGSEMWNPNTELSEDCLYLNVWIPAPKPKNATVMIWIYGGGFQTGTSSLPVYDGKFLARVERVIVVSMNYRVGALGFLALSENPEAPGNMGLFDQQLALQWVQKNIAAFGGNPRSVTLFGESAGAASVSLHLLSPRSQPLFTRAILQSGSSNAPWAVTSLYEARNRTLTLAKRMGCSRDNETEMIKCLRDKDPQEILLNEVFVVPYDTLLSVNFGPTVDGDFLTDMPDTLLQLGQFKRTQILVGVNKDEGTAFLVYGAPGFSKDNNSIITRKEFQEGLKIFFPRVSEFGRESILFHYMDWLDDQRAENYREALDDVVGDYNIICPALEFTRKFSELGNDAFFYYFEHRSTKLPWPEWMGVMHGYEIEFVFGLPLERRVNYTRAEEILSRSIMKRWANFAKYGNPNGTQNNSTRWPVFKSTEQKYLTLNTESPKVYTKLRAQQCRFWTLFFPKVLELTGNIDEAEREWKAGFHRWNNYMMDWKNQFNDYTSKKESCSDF

Acetylcholinesterase [2] = molecular target: Acetylcholinesterase (Homo sapiens, UniProt P22303); assay: Inhibition of human erythrocyte AChE using acetylthiocholine iodide as substrate preincubated for 5 mins followed by substrate addition by DTNB based Ellman's method
Acetylcholinesterase (Homo sapiens, UniProt P22303), sequence (P22303 whole entry): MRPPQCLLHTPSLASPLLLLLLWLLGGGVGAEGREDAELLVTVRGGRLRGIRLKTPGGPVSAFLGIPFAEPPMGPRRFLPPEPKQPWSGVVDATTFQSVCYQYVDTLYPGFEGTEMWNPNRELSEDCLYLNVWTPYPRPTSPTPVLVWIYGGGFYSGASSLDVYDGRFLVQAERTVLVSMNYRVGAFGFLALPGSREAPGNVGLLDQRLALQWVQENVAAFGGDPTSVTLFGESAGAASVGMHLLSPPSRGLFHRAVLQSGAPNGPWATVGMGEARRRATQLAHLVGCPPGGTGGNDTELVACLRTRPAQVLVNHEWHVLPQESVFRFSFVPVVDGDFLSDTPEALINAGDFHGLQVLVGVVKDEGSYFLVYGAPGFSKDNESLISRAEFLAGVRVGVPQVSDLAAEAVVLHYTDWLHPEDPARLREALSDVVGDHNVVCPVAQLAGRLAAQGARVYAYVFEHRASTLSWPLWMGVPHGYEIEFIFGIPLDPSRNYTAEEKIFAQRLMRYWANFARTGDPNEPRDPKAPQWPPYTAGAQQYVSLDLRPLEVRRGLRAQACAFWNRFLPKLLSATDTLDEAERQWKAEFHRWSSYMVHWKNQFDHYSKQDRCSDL

Acetylcholinesterase [3] = molecular target: Acetylcholinesterase (Electrophorus electricus, UniProt O42275); assay: Inhibition of electric eel AChE using acetylthiocholine iodide as substrate preincubated for 5 mins followed by substrate addition by DTNB based Ellman's method
Acetylcholinesterase (Electrophorus electricus, UniProt O42275), sequence (O42275 whole entry): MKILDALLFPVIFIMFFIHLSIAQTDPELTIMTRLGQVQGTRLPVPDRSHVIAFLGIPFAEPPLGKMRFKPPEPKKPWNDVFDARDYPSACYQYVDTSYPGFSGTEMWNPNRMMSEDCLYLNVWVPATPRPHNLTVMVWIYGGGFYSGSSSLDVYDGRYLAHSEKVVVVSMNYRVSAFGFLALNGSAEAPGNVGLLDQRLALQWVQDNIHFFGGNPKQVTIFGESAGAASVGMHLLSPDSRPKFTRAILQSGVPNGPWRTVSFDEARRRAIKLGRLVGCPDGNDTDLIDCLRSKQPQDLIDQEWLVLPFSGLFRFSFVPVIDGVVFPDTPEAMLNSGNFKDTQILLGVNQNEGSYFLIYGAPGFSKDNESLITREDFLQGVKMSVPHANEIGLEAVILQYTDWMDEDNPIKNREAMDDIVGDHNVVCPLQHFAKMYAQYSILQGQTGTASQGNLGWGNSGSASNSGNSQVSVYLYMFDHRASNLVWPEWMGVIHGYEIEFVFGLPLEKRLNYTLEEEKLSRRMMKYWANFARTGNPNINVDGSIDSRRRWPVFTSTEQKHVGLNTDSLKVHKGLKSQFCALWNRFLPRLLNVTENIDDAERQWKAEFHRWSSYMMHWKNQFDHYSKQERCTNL

[4] = Selectivity ratio, ratio of IC50 for inhibition of equine serum BuChE to IC50 for inhibition of electric eel AChE

SMILES | IC50 [1] [µM] | IC50 (Cholinesterase) [µM] | IC50 (Acetylcholinesterase [2]) [µM] | IC50 (Acetylcholinesterase [3]) [nM] | Ratio IC50 [4]
CCOP(=O)(OCC)C(Nc1ccccc1C(C)=O)c1ccc(OCc2nc3ccccc3c(=O)n2-c2ccc(F)cc2)c(OC)c1 (stereo not drawn) | 50 | 12.1 | 5.62 | 378 | 31.9
CCOP(=O)(OCC)C(Nc1nncs1)c1ccc(OCc2nc3ccccc3c(=O)n2-c2ccc(F)cc2)c(OC)c1 (stereo not drawn) | > 50 | > 100 | 3.37 | 361 | –
CCOP(=O)(OCC)C(Nc1ccc(F)cc1)c1ccc(OCc2nc3ccccc3c(=O)n2-c2ccc(F)cc2)c(OC)c1 (stereo not drawn) | > 50 | 35.4 | – | 805 | 43.9
CCOP(=O)(OCC)C(Nc1cccc(O)c1)c1ccc(OCc2nc3ccccc3c(=O)n2-c2ccc(F)cc2)c(OC)c1 (stereo not drawn) | 35.8 | > 100 | 4.34 | 369 | –
CCOP(=O)(OCC)C(Nc1ccc([N+](=O)[O-])cc1)c1ccc(OCc2nc3ccccc3c(=O)n2-c2ccc(F)cc2)c(OC)c1 (stereo not drawn) | 28 | > 100 | 1.78 | 315 | –
CCOP(=O)(OCC)C(Nc1ccc(OC)cc1)c1ccc(OCc2nc3ccccc3c(=O)n2-c2ccc(F)cc2)c(OC)c1 (stereo not drawn) | 29 | > 100 | – | 431 | –
CCOP(=O)(OCC)C(Nc1c(C)cccc1C)c1ccc(OCc2nc3ccccc3c(=O)n2-c2ccc(F)cc2)c(OC)c1 (stereo not drawn) | > 50 | > 100 | 3.02 | 353 | –
CCOP(=O)(OCC)C(Nc1ccc(Br)cc1)c1ccc(OCc2nc3ccccc3c(=O)n2-c2ccc(F)cc2)c(OC)c1 (stereo not drawn) | > 50 | > 100 | – | 487 | –
CCOP(=O)(OCC)C(Nc1ccccc1C)c1ccc(OCc2nc3ccccc3c(=O)n2-c2ccc(F)cc2)c(OC)c1 (stereo not drawn) | > 50 | 33.8 | 5.35 | 393 | 86
CCOP(=O)(OCC)C(Nc1ccc(C)cc1)c1ccc(OCc2nc3ccccc3c(=O)n2-c2ccc(F)cc2)c(OC)c1 (stereo not drawn) | 39.3 | > 100 | – | 669 | –
CCOP(=O)(OCC)C(Nc1cc(C)ccc1C)c1ccc(OCc2nc3ccccc3c(=O)n2-c2ccc(F)cc2)c(OC)c1 (stereo not drawn) | > 50 | 18.7 | 6.05 | 414 | 45.1
CCOP(=O)(OCC)C(Nc1ccccc1CC)c1ccc(OCc2nc3ccccc3c(=O)n2-c2ccc(F)cc2)c(OC)c1 (stereo not drawn) | > 50 | 29.6 | – | 532 | 55.7
